Patent US10780074B2, “Compounds and uses thereof” (Sunovion Pharmaceuticals Inc., priority 2017, dated 2020)
Counter-ions that a name gives are not always drawn.

system: behaviors of compound-treated mice; assay: Neuropharmacological Assay (SmartCube); type: in vivo; conditions: Mus musculus, ip, 0.25 h, dose having 50% or more total activity in SmartCube, i.p., read-out: MED (minimal effective dose)
How it was run: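 Mice dosed i.p. 15 min before testing, with compound in N-methyl-2-pyrrolidone/PEG/propylene glycol, were video-recorded and algorithmically compared with reference-drug behavioral signatures. This gave class-match probabilities (antidepressant, anxiolytic, etc.) at the most efficacious of 3 doses. MED was defined as the dose with ≥50% total activity, usually tested across 0.3–30 mpk.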

| Compound | minimal effective dose [mg/kg] |
| --- | --- |
| NC[C@H]1OCCc2c(-c3ccncn3)cccc21 (single isomer, unassigned) [Compound 75, hydrochloride salt] | 3 to 10 |
| CNC[C@@H]1OCCc2c(-c3ccnnc3)cccc21 (single isomer, unassigned) [Compound 76, hydrochloride salt] | 3 to 10 |
| CNC[C@H]1OCCc2c(-c3ccnnc3)cccc21 (single isomer, unassigned) [Compound 77, hydrochloride salt] | ≤ 3 |
| NC[C@@H]1OCCc2c(-c3ccnnc3)cccc21 (single isomer, unassigned) [Compound 78, hydrochloride salt] | 3 to 10 |
| NC[C@H]1OCCc2c(-c3ccnnc3)cccc21 (single isomer, unassigned) [Compound 79, hydrochloride salt] | 3 to 10 |
| CNC[C@@H]1OCCc2c(-c3cnccn3)cccc21 (single isomer, unassigned) [Compound 80] | 3 to 10 |
| NC[C@@H]1OCCc2c(-c3cnccn3)cccc21 (single isomer, unassigned) [Compound 82, hydrochloride salt] | 10 to 30 |
| NC[C@H]1OCCc2c(-c3cnccn3)cccc21 (single isomer, unassigned) [Compound 83, hydrochloride salt] | 3 to 10 |
| CNC[C@@H]1OCCc2c(-c3cnoc3)cccc21 (single isomer, unassigned) [Compound 84, hydrochloride salt] | 3 to 10 |
| CNC[C@H]1OCCc2c(-c3cnoc3)cccc21 (single isomer, unassigned) [Compound 85, hydrochloride salt] | ≤ 3 |
| NC[C@@H]1OCCc2c(-c3cnoc3)cccc21 (single isomer, unassigned) [Compound 86, hydrochloride salt] | 3 to 10 |
| NC[C@H]1OCCc2c(-c3cnoc3)cccc21 (single isomer, unassigned) [Compound 87, hydrochloride salt] | ≤ 3 |
| NC[C@@H]1OCCc2c(-c3ccon3)cccc21 (single isomer, unassigned) [Compound 88, hydrochloride salt] | 10 to 30 |

same assay, conditions: i.p. 15 min before behavioral test, most efficacious dose(s) of 3 doses

| Compound | AD: ADHD (probability that activity matches class) | AG: analgesic (probability that activity matches class) | AX: anxiolytic (probability that activity matches class) | CE: cognitive enhancer (probability that activity matches class) | DP: anti-depressant (probability that activity matches class) | MS: mood stabilizer (probability that activity matches class) | PS: anti-psychotic (probability that activity matches class) | SD: sedative hypnotic (probability that activity matches class) | UN: uncharacterized CNS activity (probability that activity matches class) |
| --- | --- | --- | --- | --- | --- | --- | --- | --- | --- |
| NC[C@H]1OCCc2c(-c3ccncn3)cccc21 (single isomer, unassigned) [Compound 75, hydrochloride salt] | + (LOQ ≤ + <5%) | + (LOQ ≤ + <5%) | ++ (5% ≤ ++ <25%) | + (LOQ ≤ + <5%) | ++++ (50% ≤ ++++) | + (LOQ ≤ + <5%) | + (LOQ ≤ + <5%) | + (LOQ ≤ + <5%) | ++ (5% ≤ ++ <25%) |
| CNC[C@@H]1OCCc2c(-c3ccnnc3)cccc21 (single isomer, unassigned) [Compound 76, hydrochloride salt] | + (LOQ ≤ + <5%) | ++ (5% ≤ ++ <25%) | ++ (5% ≤ ++ <25%) | + (LOQ ≤ + <5%) | + (LOQ ≤ + <5%) | + (LOQ ≤ + <5%) | + (LOQ ≤ + <5%) | + (LOQ ≤ + <5%) | + (LOQ ≤ + <5%) |
| CNC[C@H]1OCCc2c(-c3ccnnc3)cccc21 (single isomer, unassigned) [Compound 77, hydrochloride salt] | + (LOQ ≤ + <5%) | + (LOQ ≤ + <5%) | ++ (5% ≤ ++ <25%) | + (LOQ ≤ + <5%) | ++++ (50% ≤ ++++) | + (LOQ ≤ + <5%) | + (LOQ ≤ + <5%) | + (LOQ ≤ + <5%) | + (LOQ ≤ + <5%) |
| NC[C@@H]1OCCc2c(-c3ccnnc3)cccc21 (single isomer, unassigned) [Compound 78, hydrochloride salt] | + (LOQ ≤ + <5%) | + (LOQ ≤ + <5%) | ++ (5% ≤ ++ <25%) | + (LOQ ≤ + <5%) | + (LOQ ≤ + <5%) | + (LOQ ≤ + <5%) | + (LOQ ≤ + <5%) | + (LOQ ≤ + <5%) | + (LOQ ≤ + <5%) |
| NC[C@H]1OCCc2c(-c3ccnnc3)cccc21 (single isomer, unassigned) [Compound 79, hydrochloride salt] | + (LOQ ≤ + <5%) | + (LOQ ≤ + <5%) | + (LOQ ≤ + <5%) | + (LOQ ≤ + <5%) | ++ (5% ≤ ++ <25%) | + (LOQ ≤ + <5%) | + (LOQ ≤ + <5%) | + (LOQ ≤ + <5%) | + (LOQ ≤ + <5%) |
| CNC[C@@H]1OCCc2c(-c3cnccn3)cccc21 (single isomer, unassigned) [Compound 80] | + (LOQ ≤ + <5%) | + (LOQ ≤ + <5%) | ++ (5% ≤ ++ <25%) | + (LOQ ≤ + <5%) | + (LOQ ≤ + <5%) | + (LOQ ≤ + <5%) | + (LOQ ≤ + <5%) | + (LOQ ≤ + <5%) | + (LOQ ≤ + <5%) |
| NC[C@@H]1OCCc2c(-c3cnccn3)cccc21 (single isomer, unassigned) [Compound 82, hydrochloride salt] | + (LOQ ≤ + <5%) | + (LOQ ≤ + <5%) | ++ (5% ≤ ++ <25%) | + (LOQ ≤ + <5%) | + (LOQ ≤ + <5%) | + (LOQ ≤ + <5%) | + (LOQ ≤ + <5%) | + (LOQ ≤ + <5%) | + (LOQ ≤ + <5%) |
| NC[C@H]1OCCc2c(-c3cnccn3)cccc21 (single isomer, unassigned) [Compound 83, hydrochloride salt] | ++ (5% ≤ ++ <25%) | + (LOQ ≤ + <5%) | ++ (5% ≤ ++ <25%) | + (LOQ ≤ + <5%) | ++++ (50% ≤ ++++) | + (LOQ ≤ + <5%) | + (LOQ ≤ + <5%) | + (LOQ ≤ + <5%) | + (LOQ ≤ + <5%) |
| CNC[C@@H]1OCCc2c(-c3cnoc3)cccc21 (single isomer, unassigned) [Compound 84, hydrochloride salt] | ++ (5% ≤ ++ <25%) | + (LOQ ≤ + <5%) | ++ (5% ≤ ++ <25%) | ++ (5% ≤ ++ <25%) | ++ (5% ≤ ++ <25%) | + (LOQ ≤ + <5%) | + (LOQ ≤ + <5%) | + (LOQ ≤ + <5%) | ++ (5% ≤ ++ <25%) |
| CNC[C@H]1OCCc2c(-c3cnoc3)cccc21 (single isomer, unassigned) [Compound 85, hydrochloride salt] | ++ (5% ≤ ++ <25%) | + (LOQ ≤ + <5%) | ++ (5% ≤ ++ <25%) | + (LOQ ≤ + <5%) | ++++ (50% ≤ ++++) | + (LOQ ≤ + <5%) | + (LOQ ≤ + <5%) | + (LOQ ≤ + <5%) | ++ (5% ≤ ++ <25%) |
| NC[C@@H]1OCCc2c(-c3cnoc3)cccc21 (single isomer, unassigned) [Compound 86, hydrochloride salt] | + (LOQ ≤ + <5%) | + (LOQ ≤ + <5%) | ++ (5% ≤ ++ <25%) | ++ (5% ≤ ++ <25%) | ++ (5% ≤ ++ <25%) | + (LOQ ≤ + <5%) | ++ (5% ≤ ++ <25%) | + (LOQ ≤ + <5%) | +++ (25% ≤ +++ <50%) |
| NC[C@H]1OCCc2c(-c3cnoc3)cccc21 (single isomer, unassigned) [Compound 87, hydrochloride salt] | ++ (5% ≤ ++ <25%) | + (LOQ ≤ + <5%) | ++++ (50% ≤ ++++) | + (LOQ ≤ + <5%) | ++++ (50% ≤ ++++) | + (LOQ ≤ + <5%) | + (LOQ ≤ + <5%) | + (LOQ ≤ + <5%) | + (LOQ ≤ + <5%) |
| NC[C@@H]1OCCc2c(-c3ccon3)cccc21 (single isomer, unassigned) [Compound 88, hydrochloride salt] | + (LOQ ≤ + <5%) | + (LOQ ≤ + <5%) | ++ (5% ≤ ++ <25%) | + (LOQ ≤ + <5%) | ++ (5% ≤ ++ <25%) | + (LOQ ≤ + <5%) | + (LOQ ≤ + <5%) | + (LOQ ≤ + <5%) | + (LOQ ≤ + <5%) |
